Tests used:
[1] = human, serum, 4383 h
[2] = human
[3] = human; remark: listed apart in the source
[4] = human; remark: listed apart in the source
[5] = Highest frequency of moderate liver toxicity observed during clinical trials, expressed as a percentage. [column '% BIOL' in source]; settings: human
[6] = human; remark: listed apart in the source
[7] = Times to onset, minimal and maximal, observed in the indexed observations. [column 'DELAI' in source]; settings: human
[8] = human, serum
[9] = human, serum; remark: listed apart in the source
[10] = human; remark: listed apart in the source
[11] = human; remark: listed apart in the source
[12] = human; remark: listed apart in the source
[13] = Highest frequency of acute liver toxicity observed during clinical trials, expressed as a percentage. [column '% AIGUE' in source]; settings: human
[14] = human; remark: listed apart in the source
[15] = human; remark: listed apart in the source
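For Hepatotoxicity (association with vascular disease) in this document: count of indexed literature references reporting vascular liver injury in humans, e.g. peliosis hepatitis, hepatic veno-occlusive disease or Budd-Chiari syndrome.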
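For Hepatotoxicity (benign tumour) in this document: value is a count of indexed literature references citing a benign tumour confirmed by histopathology.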
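For Hepatotoxicity (choleostasis) in this document: human cholestatic liver injury, shown by histopathology or by peak ALT or AST elevation over alkaline phosphatase ratio below 2, value counts indexed literature reports.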
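For Hepatotoxicity (chronic liver disease) in this document: chronic liver injury confirmed by histopathology or persistently raised serum aminotransferase activity beyond 6 months, value given as the count of indexed literature references.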
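For Hepatotoxicity (cirrhosis) in this document: value is a count of indexed literature references reporting cirrhosis confirmed by histopathology.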
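For Hepatotoxicity (cytolytic) in this document: human cytolytic liver injury, shown by histopathology or by a ratio above 5 of peak ALT or AST elevation to alkaline phosphatase elevation, value counts indexed references.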
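For Hepatotoxicity (granulomatous hepatitis) in this document: value is a count of indexed literature references reporting granulomatous liver disease confirmed by histopathology.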
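For Hepatotoxicity (malignant tumour) in this document: malignant tumour confirmed by histopathology, value gives the count of indexed literature references reporting it.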
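For Hepatotoxicity (severe hepatitis) in this document: human clinical data: severe hepatitis, meaning potentially life-threatening liver failure or clinically observed cases, the value counts how many indexed literature references report it.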
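For Hepatotoxicity (steatosis) in this document: steatosis confirmed by histopathology, value is the count of indexed references.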

SMILES | Hepatotoxicity (chronic liver disease) [1] | Hepatotoxicity (cirrhosis) [2] | Hepatotoxicity (malignant tumour) [3] | Hepatotoxicity (association with vascular disease) [4] | Hepatotoxicity (moderate) [5] [%] | Hepatotoxicity (severe hepatitis) [6] | Hepatotoxicity (time to onset) [7] | Hepatotoxicity (acute) [8] | Hepatotoxicity (moderate) [9] | Hepatotoxicity (steatosis) [10] | Hepatotoxicity (choleostasis) [11] | Hepatotoxicity (granulomatous hepatitis) [12] | Hepatotoxicity (acute) [13] [%] | Hepatotoxicity (cytolytic) [14] | Hepatotoxicity (benign tumour) [15] | Hepatotoxicity (moderate) ([5]; Liver) [%] | Hepatotoxicity (severe hepatitis) ([6]; Liver) | Hepatotoxicity (acute) ([13]; Liver) [%] | also measured
Cc1nnc(NS(=O)(=O)c2ccc(N)cc2)s1 [SULFAMETHIZOLE] | 0 | 0 | 0 | 0 | 0 | 0 | 1 month - 2 months | 4 | 0 | 0 | 1 | 0 | 0 | 2 | 0 |  |  |  | 
O=C1C(CC[S+]([O-])c2ccccc2)C(=O)N(c2ccccc2)N1c1ccccc1 (stereo not given) [SULFINPYRAZONE] | 0 | 0 | 0 | 0 |  |  | 10 days | 1 | 0 | 0 | 1 | 0 |  | 0 | 0 | 0 | 0 | 0 | 
CN1C(C(=O)Nc2ccccn2)=C(O)c2sccc2S1(=O)=O [TENOXICAM] | 0 | 0 | 0 | 0 |  |  | 3 days - 5 days | 3 | 8 | 0 |  |  |  |  | 0 | 27 | 0 | 0 | Hepatotoxicity (choleostasis) ([11]; Liver): 2; Hepatotoxicity (granulomatous hepatitis) ([12]; Liver): 0; Hepatotoxicity (cytolytic) ([14]; Liver): 2
COc1cc2nc(N3CCN(C(=O)C4CCCO4)CC3)nc(N)c2cc1OC (stereo not given) [TERAZOSIN] | 0 | 0 | 0 | 0 | 1.9 | 0 | 4 months | 1 | 1 | 0 | 0 | 0 | 0 | 0 | 0 |  |  |  | 
S=P(N1CC1)(N1CC1)N1CC1 [THIOTEPA] | 0 | 0 | 0 | 2 | 0 | 2 | 2 weeks | 1 | 0 | 0 | 1 | 0 | 5.3 | 1 | 0 |  |  |  | 
O=P(O)(O)C(Sc1ccc(Cl)cc1)P(=O)(O)O [TILUDRONIC ACID] | 0 | 0 | 0 | 0 | 0.9 | 0 | 8 weeks | 0 | 1 | 0 | 0 | 0 | 0 | 0 | 0 |  |  |  | 

Reference: ChEMBL document CHEMBL3137667, “[Drug-induced liver injury; fourteenth updated edition of the bibliographic database of liver injuries and related drugs]” (Gastroenterol Clin Biol, 2004)
